{"source": "patent US20220280473A1", "about": "“COMPOSITIONS AND METHODS FOR MODULATING EPITHELIAL-MESENCHYMAL TRANSITION” (AUCKLAND UNISERVICES LIMITED, priority 2021, published 2022)", "format_in_all_cases": "cell-based, Human", "key": {"[1]": {"tested_on": "ARPE-19 cells", "experiment": "TGF-β1 and TGF-β2 release after HG+Cyt insult", "conditions": "HG+Cyt insult plus tonabersat"}, "[2]": {"tested_on": "ARPE-19 cells", "experiment": "Cell migration (scrape wound) assay after HG+Cyt insult", "conditions": "ARPE-19, HG+Cyt plus tonabersat 100 μM", "protocol": "(§1) Human adult retinal pigment epithelial cells (ARPE-19; American Type Culture Collection, USA) were cultured in Dulbecco's modified Eagle medium F-12 (DMEM-F12; Thermofisher Scientific Inc., USA) supplemented with 10% foetal bovine serum ([…]: Invitrogen, USA) and a 1× antibiotics and antimycotics mixture (AA, 100× stock) at 37° C. in a humidified 5% CO2 incubator. Cells were grown in T75 flasks, and the medium was changed twice per week until confluent.\n(§2) At passages 15-18, cells were plated at 2.5×10^5 cells/mL in 8-well chamber slides for immunohistochemical studies, 6-well plates with inserts for fluorescein isothiocyanate (FITC)-dextran dye leak and transepithelial electrical resistance (TEER) measurements, and 24-well plates for cell migration studies. Once confluent, cells were treated as three separate groups: untreated, insult of HG+Cyt, or HG+Cyt insult plus tonabersat treatment (HG+Cyt+Ton). The insult of HG+Cyt was used to induce DR-like conditions as has been previously described (Kuo et al., 2020; Mugisho et al., 2018a, 2018b), and consisted of a combination of 32.5 mM HG and the pro-inflammatory cytokines; tumour necrosis factor alpha (TNF-α; 10 ng/mL; Peprotech, USA) and interleukin-1 beta (IL-1β; 10 ng/mL; Peprotech, USA).\nTonabersat (MedChemExpress, NJ, USA) was administered at a concentration of 100 μM to cells at the same time as the HG+Cyt insult (HG+Cyt+Ton). […]\nTo determine cell migration rates following 72 h treatment, a scrape wound was created in the cell monolayer by drawing a 1000 μL pipette tip vertically over the cells by hand, and the width of the wound measured over time. […] The width of the scrape was measured with the line tool and “measure” feature in ImageJ at eight regular intervals (guided using a grid overlay) within each image. […] The scrape wound width was quantified relative to the post-scrape width at time 0 h and converted to a percentage scrape closure for each condition. […]"}, "[3]": {"tested_on": "ARPE-19 cells", "experiment": "Transepithelial electrical resistance (TEER) of cell monolayer", "conditions": "ARPE-19 monolayer, HG+Cyt plus tonabersat 100 μM", "protocol": "as §1, §2\n(§3) Tonabersat (MedChemExpress, NJ, USA) was administered at a concentration of 100 μM to cells at the same time as the HG+Cyt insult (HG+Cyt+Ton). To achieve this tonabersat was dissolved in 100% DMSO at a concentration of 100 mM and then 1 μl of the stock solution was added to 999 μl of culture medium containing HG+Cyt. Cells were incubated under treatment conditions for 72 h unless otherwise stated. Brightfield images were taken using a light microscope at 24, 48, and 72 h post-treatment. All experiments were repeated thrice.\nTo determine the effect of conditions on the TEER of the cell monolayer, cells were again seeded into the inserts of 6-well Transwell® plates (Corning Incorporated, USA), with additional medium in the base. […] TEER values were quantified relative to the 0 h values for each respective group. […]"}, "[4]": {"tested_on": "ARPE-19 cells", "experiment": "α-SMA expression by quantitative immunocytochemistry after HG+Cyt insult", "conditions": "for α-SMA to RPE65 expression ratio / α-SMA expression (mean fluorescence intensity, compared to untreated levels): ARPE-19, HG+Cyt insult plus tonabersat 100 μM; for α-SMA to RPE65 expression ratio: α-SMA MFI/RPE65 MFI", "protocol": "as §1, §2, §3\nCells were fixed with 4% paraformaldehyde for 10 min and permeabilized with 0.1% Triton X-100 in phosphate-buffered saline (PBS) for 10 min. Cells were blocked in normal goat or horse serum for 1 h, and then incubated overnight at 4° C. with either mouse anti-RPE65 (1:1000; Abcam, UK) and goat anti-α-SMA (1:200; Abcam, UK), or rabbit anti-ZO-1 (1:1000; Invitrogen, USA). Two 10 min washes followed in PBS, after which cells were incubated at room temperature for 2 h with their respective secondary antibodies; donkey anti-rabbit Alexa-488 (1:500; Abcam, UK), donkey anti-mouse Alexa-488 (1:500; Abcam, UK) or donkey anti-goat Cy3 (1:500; Invitrogen, USA). Cells were washed in PBS twice for 10 min. Cell nuclei were stained with DAPI (1:1000; Sigma-Aldrich, USA), and slides were mounted using Citifluor™ anti-fade reagent and sealed with nail varnish.\nFluorescence images were taken on an Olympus FV1000 confocal laser scanning microscope (Olympus, Japan), and processed using Olympus FV10-ASW viewer and ImageJ software (Version 1.52a, National Institute of Health, USA). Five images were taken from a single chamber per condition and repeated in three separate experiments. RPE65 and α-SMA expression was quantified by measuring the mean fluorescence intensity (MFI). Data is presented relative to the respective untreated group. The ratio of α-SMA to RPE65 expression was additionally calculated by (α-SMA MFI/RPE65 MFI). ZO-1 was qualitatively assessed for changes in localisation."}, "[5]": {"tested_on": "ARPE-19 cells", "experiment": "Cx43 cell membrane localization, immunolabelling", "conditions": "ARPE-19, HG+Cyt insult plus tonabersat, qualitative"}, "[6]": {"tested_on": "ARPE-19 cells", "experiment": "RPE65 expression by quantitative immunocytochemistry after HG+Cyt insult", "protocol": "as §1\n(§4) At passages 15-18, cells were plated at 2.5×10^5 cells/mL in 8-well chamber slides for immunohistochemical studies, 6-well plates with inserts for fluorescein isothiocyanate (FITC)-dextran dye leak and transepithelial electrical resistance (TEER) measurements, and 24-well plates for cell migration studies. Once confluent, cells were treated as three separate groups: untreated, insult of HG+Cyt, or HG+Cyt insult plus tonabersat treatment (HG+Cyt+Ton). […]\n(§5) Fluorescence images were taken on an Olympus FV1000 confocal laser scanning microscope (Olympus, Japan), and processed using Olympus FV10-ASW viewer and ImageJ software (Version 1.52a, National Institute of Health, USA). […] RPE65 and α-SMA expression was quantified by measuring the mean fluorescence intensity (MFI). […] The ratio of α-SMA to RPE65 expression was additionally calculated by (α-SMA MFI/RPE65 MFI). ZO-1 was qualitatively assessed for changes in localisation."}, "[7]": {"tested_on": "ARPE-19 cells", "experiment": "ZO-1 tight junction localisation, immunocytochemistry", "conditions": "ARPE-19, HG+Cyt insult plus tonabersat 100 μM, qualitative", "protocol": "as §1, §4, §5"}}, "note": "Entries after “also recorded” stand apart in the source; their conditions may differ.", "data": [{"compound": "CC(=O)c1ccc2c(c1)[C@H](NC(=O)c1ccc(F)c(Cl)c1)[C@H](O)C(C)(C)O2", "note": "[tonabersat, N-[(3S,4S)-6-acetyl-3-hydroxy-2,2-dimethyl-3,4-dihydrochromen-4-yl]-3-chloro-4-fluorobenzamide]", "values": [{"measurement": "HG+Cyt induced TGF-β2 release", "setting": "[1]; 24 h", "result": "prevented HG+Cyt induced TGF-β2 release back to untreated levels"}, {"measurement": "TGF-β1 and 2 levels", "setting": "[1]; 72 h", "result": "no significant differences between all groups"}, {"measurement": "scrape wound percentage closure", "setting": "[2]; 4 h post-scrape vs 0 h scrape width", "result": "no significant difference in percentage closure"}, {"measurement": "scrape wound percentage closure", "setting": "[2]; 24 h post-scrape relative to 0 h width", "result": "33.8±9.6", "unit": "%"}, {"measurement": "scrape wound percentage closure", "setting": "[2]; 24 h post-scrape relative to 0 h width, listed as HG+Cyt+Ton", "result": "reduction in scrape wound closure"}, {"measurement": "TEER relative to 0 h value", "setting": "[3]; 24 h", "result": "99.5±1.2", "unit": "%"}, {"measurement": "TEER relative to 0 h value", "setting": "[3]; 48 h", "result": "114.9±3.2", "unit": "%"}, {"measurement": "TEER relative to 0 h value", "setting": "[3]; 72 h", "result": "97.7±1.1", "unit": "%"}, {"measurement": "α-SMA to RPE65 expression ratio", "setting": "[4]; 24 h", "result": 1.1}, {"measurement": "α-SMA expression (mean fluorescence intensity, compared to untreated levels)", "setting": "[4]; 72 h", "result": "75.5±8.4", "unit": "%"}, {"measurement": "α-SMA expression (mean fluorescence intensity, compared to untreated levels)", "setting": "[4]; 72 h, listed as HG+Cyt+Ton", "result": "significantly reduced"}, {"measurement": "α-SMA to RPE65 expression ratio", "setting": "[4]; 72 h", "result": 0.8}, {"measurement": "α-SMA expression increase and striation following HG+Cyt insult (immunolabelling images)", "setting": "[4]; ARPE-19, addition of tonabersat, FIG. 2 qualitative", "result": "changes were prevented"}, {"measurement": "Cx43 cell membrane localization", "setting": "[5]", "result": "maintained Cx43 localization"}, {"measurement": "RPE65 expression (mean fluorescence intensity relative to untreated group)", "setting": "[6]; ARPE-19, HG+Cyt insult plus tonabersat 100 μM, 72 h, comparison with HG+Cyt and untreated groups, listed as HG+Cyt+Ton", "result": "not being significantly different to either group; also recorded: no statistically significant difference"}, {"measurement": "RPE65 expression decrease following HG+Cyt insult (immunolabelling images)", "setting": "[6]; ARPE-19, co-application of tonabersat, FIG. 2 qualitative", "result": "prevented"}, {"measurement": "ZO-1 cell membrane localization", "setting": "[7]", "result": "maintained ZO-1 localization at the cell membrane; also recorded: prevented loss of ZO-1 cell membrane localization"}]}]}
